Values joined by “and” are separate entries in the source; they are usually repeats but may differ in a detail not shown here. Equal values may be shown once.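 Exposure lasted 48 hours, with cells grown in 96-well plates and compounds tested at five concentrations. The concentration for 50% growth inhibition is given as GI50. Definition used: TGI = concentration required for complete inhibition of growth.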
Legend:
Assay in all cases: DTP human tumour cell line panel, 48 h
MDA-MB-435 = test system: MDA-MB-435
PC-3 prostate = test system: PC-3 prostate
T-47D breast = test system: T-47D breast
MDA-N = test system: MDA-N
DMS 114 small cell lung = test system: DMS 114 small cell lung
KM20L2 colon = test system: KM20L2 colon
M19-MEL melanoma = test system: M19-MEL melanoma
SNB-78 CNS = test system: SNB-78 CNS

| Compound | GI50 (MDA-MB-435) [µM] | TGI (MDA-MB-435) | GI50 (PC-3 prostate) [µM] | TGI (PC-3 prostate) | GI50 (T-47D breast) [µM] | TGI (T-47D breast) | TGI (MDA-N) | TGI (DMS 114 small cell lung) [µM] | TGI (KM20L2 colon) [µM] | TGI (M19-MEL melanoma) [µM] | TGI (SNB-78 CNS) [µM] | GI50 (MDA-N) [µM] |
| --- | --- | --- | --- | --- | --- | --- | --- | --- | --- | --- | --- | --- |
| CN1CCN(Cc2ccc(NC(=O)c3cncc(C#Cc4cnc(N)c5cnccc45)c3)cc2C(F)(F)F)CC1 | 0.115 | 1.65 µM | 0.284 | 8.97 µM | 0.41 | 9.13 µM |  |  |  |  |  |  |
| O=C(/C=C/OC(=O)c1cccc(Cl)c1)c1ccc(Cl)cc1 | 44.6 | > 100 µM | 30.7 | > 95.9 µM | > 48.8 | > 100 µM |  |  |  |  |  |  |
| O=[N+]([O-])c1cc2c([N+](=O)[O-])cccc2o1 |  | 53.8 µM |  | 36.1 µM |  | > 100 µM | 23.6 µM |  |  |  |  |  |
| COc1cc(/C=C/C(=O)c2c(C)nc3ccccc3c2C)ccc1OCCCN1CCN(C(=O)c2ccco2)CC1 | 4.55 | 19.8 µM | 6.44 | 26.7 µM | 2.5 | 15 µM |  |  |  |  |  |  |
| CCCN1CCC(c2ccc(Nc3nc(Nc4cc(F)ccc4C(N)=O)c4cc[nH]c4n3)c(OC)c2)CC1 | 0.852 | 5.86 µM | 2.69 | 9.53 µM | 4.14 | 9.17 µM |  |  |  |  |  |  |
| CCn1ccc(NS(=O)(=O)c2ccc(N)cc2)nc1=O | > 100 | > 100 µM | > 100 | > 100 µM | > 100 | > 100 µM |  |  |  |  |  |  |
| COc1ccc(/C=C2\c3cc(OC)c(OC)c(OC)c3CC[C@@H]2O)cc1F | 0.0399 | 0.235 µM | 0.474 | > 100 µM | 0.36 | > 100 µM |  |  |  |  |  |  |
| CCOC1CC2OC(=O)C1C=C2C(=O)OC (configuration not stated) |  |  |  |  |  |  |  | 54.9 | > 100 | > 100 | > 100 |  |
| C[Si](C)(C)C(Sc1ccccc1)(Sc1ccccc1)Sc1ccccc1 |  |  |  |  |  |  |  | > 100 | > 100 | > 100 | > 100 |  |
| CC1C2CC=CC(=O)[C@@]2(C)CCC12OCCO2 (some centres not stated) |  |  |  |  |  |  |  | > 100 | > 100 | > 100 | > 100 |  |
| Cc1cc(Cl)cc(Cc2cc(Cl)cc(C)c2O)c1O | 2.05 | 6.39 µM | 2.55 | 8.68 µM | 3.64 | > 100 µM |  |  |  |  |  |  |
| COc1ccc2c(c1OC(C)=O)C1=CC(=O)CCC13CCNC3C2 (configuration not stated) |  | > 100 µM |  | > 100 µM |  | > 100 µM | > 100 µM |  |  |  |  |  |
| CN(C)CCOC(=O)Nc1nc2ccc(Sc3ccccc3)cc2[nH]1 | 0.432 | 2.26 µM | 3 | 22.7 µM | 4.66 | 21.4 µM |  |  |  |  |  |  |
| CN(C)c1ccc(N=C2C=CC(=O)c3ccccc32)cc1 | 1.85 | 3.58 µM | 2.66 | 19.8 µM | 2.27 | 6.01 µM |  |  |  |  |  |  |
| Cc1ccc(S(=O)(=O)N2CCc3ccc(O)c4c3C2Cc2ccc3c(c2-4)OCO3)cc1 (configuration not stated) | 0.216 | 0.539 µM | 0.808 | 19.5 µM | 0.968 | 51 µM |  |  |  |  |  |  |
| O=C(O)Cc1cccc2c(=O)c3cccc([N+](=O)[O-])c3oc12 |  | > 100 µM |  | > 100 µM |  | > 100 µM | > 100 µM |  |  |  |  |  |

| Compound | GI50 (MDA-MB-435) [µM] | TGI (MDA-MB-435) | GI50 (PC-3 prostate) [µM] | TGI (PC-3 prostate) | GI50 (T-47D breast) [µM] | TGI (T-47D breast) | TGI (MDA-N) | TGI (DMS 114 small cell lung) [µM] | TGI (KM20L2 colon) [µM] | TGI (M19-MEL melanoma) [µM] | TGI (SNB-78 CNS) [µM] | GI50 (MDA-N) [µM] |
| --- | --- | --- | --- | --- | --- | --- | --- | --- | --- | --- | --- | --- |
| COCCn1cc(-c2csc(-c3c[nH]c4ccc(Br)cc34)n2)c2cccnc21 | 4.12 | > 100 µM | 3.68 | > 100 µM | 1.97 | 21 µM |  |  |  |  |  |  |
| Cc1ccc(OCC2OC(n3cnc4c(Br)nc(Br)nc43)CC2Oc2ccc(C)cc2)cc1 (configuration not stated) | 6.85 | 19.4 µM and 19.5 µM | 5.42 | 16.2 µM and 11.8 µM | 2.48 | 29.7 µM and 6.82 µM | 17.4 µM and 9.89 µM |  |  |  |  | 6.2 |
| Nc1ccc(Sc2c3ccccc3nc3ccccc23)cc1 |  | 35.1 µM |  | 25.7 µM |  | 5.6 µM | 38.5 µM | 38 | 33.1 | 47.9 | 53.3 |  |
| CCOC(=O)CNc1nnnn1C1OC(CO)C(O)C1O (configuration not stated) |  |  |  |  |  |  |  | > 100 | > 100 | > 100 | > 100 |  |
| Cc1cc(=O)oc2cc(OC/C=C3\CCC(=O)O3)ccc12 | 7.23 | 40.9 µM | 9.01 | 34.1 µM | 14.3 | 35.3 µM |  |  |  |  |  |  |
| CC1CC[P+](c2ccccc2)(c2ccccc2)CC1 |  |  |  |  |  |  |  | > 100 | > 100 | > 100 | > 100 |  |
| O=c1cc(-c2ccccc2)[nH]c2cc(Cl)ccc12 |  |  |  |  |  |  |  | 3.29 | 3.2 | > 100 | > 100 |  |
| COC1=CC(=O)c2nc(Cl)ccc2C1=O | 1.79 | 3.36 µM | 3.73 | 16.5 µM |  |  |  |  |  |  |  |  |
| [CH3][Sn]([CH3])([CH3])[O][N+](=O)[O-] | 5.93 | > 10 µM | > 10 | > 10 µM | 4.09 | > 10 µM | > 10 µM |  |  |  |  | 5.14 |
| O=C(O[C@H]1CCN2C[C@H]3C[C@H](CN4C(=O)CCC[C@H]34)[C@@H]2C1)c1ccc(O)cc1 |  | > 100 µM |  | > 100 µM |  | > 100 µM | > 100 µM |  |  |  |  |  |
| C/C(=N/Nc1nc(C)cc(=O)[nH]1)C(=O)O |  | > 100 µM |  | > 100 µM |  | > 100 µM | > 100 µM |  |  |  |  |  |
| CCN=C(C#N)NCC |  |  |  |  |  |  |  | 92 | > 100 | > 100 | > 100 |  |
| CCCCCCCCCCCCCB(O)O |  |  |  |  |  |  |  | > 100 | > 100 | > 100 | > 100 |  |
| CC1=C([Se]CC(OC(=O)[C@@H](CO)NC(=O)OC(C)(C)C)C(=O)NCCCCCC(=O)OCc2ccccc2)C(=O)c2ccccc2C1=O (some centres not stated) | 1.79 | 3.49 µM | 1.23 | 2.58 µM | 1.62 | 3.95 µM |  |  |  |  |  |  |
| O=C(O)CCC(C(=O)O)N1C(=O)C2C3CCC(C3)C2C1=O (configuration not stated) |  | > 100 µM |  | > 100 µM |  | > 100 µM | > 100 µM |  |  |  |  |  |

From PubChem BioAssay (NCI)
